Like-named read-outs stand apart in the source and are kept apart here.
Experiments:
AHR [1] = target: T1, AHR (Homo sapiens, UniProt P35869); assay: In vitro assay 1: antagonism in human cell line (AHR transactivation, firefly luciferase reporter, kynurenic acid prestimulated); assay type: cell-based; details: AHR Antagonism Human IC50 [M], firefly luciferase reporter
T1 construct: U87 MG glioblastoma cells (ATCC #HTB-14) endogenously expressing AHR; endogenous in cells; host or cells: U87 MG glioblastoma cells (ATCC #HTB-14)
T1 sequence (P35869 11-848): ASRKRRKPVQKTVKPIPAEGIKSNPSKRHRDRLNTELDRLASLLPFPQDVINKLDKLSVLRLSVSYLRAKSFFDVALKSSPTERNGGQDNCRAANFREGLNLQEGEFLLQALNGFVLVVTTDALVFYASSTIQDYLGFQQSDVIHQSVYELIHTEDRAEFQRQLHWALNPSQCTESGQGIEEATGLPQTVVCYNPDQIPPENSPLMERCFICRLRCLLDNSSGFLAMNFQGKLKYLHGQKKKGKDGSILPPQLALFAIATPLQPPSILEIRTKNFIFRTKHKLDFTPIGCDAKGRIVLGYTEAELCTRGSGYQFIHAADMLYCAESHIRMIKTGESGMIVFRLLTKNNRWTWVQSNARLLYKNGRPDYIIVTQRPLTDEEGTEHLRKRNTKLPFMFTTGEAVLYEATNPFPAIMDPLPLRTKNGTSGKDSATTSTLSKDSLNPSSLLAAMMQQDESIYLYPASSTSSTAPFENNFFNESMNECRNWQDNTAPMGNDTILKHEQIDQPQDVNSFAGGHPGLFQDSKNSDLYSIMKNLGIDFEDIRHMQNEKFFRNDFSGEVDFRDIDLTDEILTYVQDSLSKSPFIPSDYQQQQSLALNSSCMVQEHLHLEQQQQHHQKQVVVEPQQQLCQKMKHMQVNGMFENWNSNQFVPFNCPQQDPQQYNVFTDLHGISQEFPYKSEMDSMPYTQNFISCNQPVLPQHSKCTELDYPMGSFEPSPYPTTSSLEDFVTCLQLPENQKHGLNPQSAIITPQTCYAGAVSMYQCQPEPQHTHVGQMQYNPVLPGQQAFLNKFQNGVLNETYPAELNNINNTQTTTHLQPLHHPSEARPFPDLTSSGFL
In short: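 Antagonism measured as loss of kynurenic acid-driven firefly luciferase from DRE reporter in stably transfected U87 MG cells; constitutive Renilla signal monitors cytotoxicity. Positive/negative control normalization, staurosporine 5 μM with 150 μM kynurenic acid as inhibition control; replicates given as mean or median.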

AHR [2] = target: T2, AHR (Mus musculus, UniProt P30561); assay: In vitro assay 3: antagonism in mouse cell line (AHR transactivation, firefly luciferase reporter, kynurenic acid prestimulated); assay type: cell-based
T2 sequence (P30561 1-848 P471L/N533S/M589L): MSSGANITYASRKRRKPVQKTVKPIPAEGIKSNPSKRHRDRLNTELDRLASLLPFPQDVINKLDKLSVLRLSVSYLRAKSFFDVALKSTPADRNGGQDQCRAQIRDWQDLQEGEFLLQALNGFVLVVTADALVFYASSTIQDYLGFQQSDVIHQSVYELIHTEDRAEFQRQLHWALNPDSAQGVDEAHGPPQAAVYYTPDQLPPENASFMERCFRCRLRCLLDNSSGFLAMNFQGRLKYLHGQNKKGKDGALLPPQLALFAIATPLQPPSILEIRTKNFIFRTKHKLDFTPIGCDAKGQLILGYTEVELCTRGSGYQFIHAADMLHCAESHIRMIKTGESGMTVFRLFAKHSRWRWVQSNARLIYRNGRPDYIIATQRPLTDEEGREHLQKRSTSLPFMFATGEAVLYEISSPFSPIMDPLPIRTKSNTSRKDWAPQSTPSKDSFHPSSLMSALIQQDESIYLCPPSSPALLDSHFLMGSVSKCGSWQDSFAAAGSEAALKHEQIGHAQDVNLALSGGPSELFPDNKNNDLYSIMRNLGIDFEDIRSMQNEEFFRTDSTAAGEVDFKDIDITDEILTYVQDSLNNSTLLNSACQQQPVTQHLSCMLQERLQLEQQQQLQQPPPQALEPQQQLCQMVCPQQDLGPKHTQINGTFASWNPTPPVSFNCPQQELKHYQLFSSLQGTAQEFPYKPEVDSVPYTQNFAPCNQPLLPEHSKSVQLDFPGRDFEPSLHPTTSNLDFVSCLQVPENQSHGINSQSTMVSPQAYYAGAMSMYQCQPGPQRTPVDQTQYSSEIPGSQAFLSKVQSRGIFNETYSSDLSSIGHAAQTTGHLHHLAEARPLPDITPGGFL
In short: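 Luminescence from an AHR-dependent DRE-luciferase reporter, stably integrated in mouse cells, quantifies blockade of kynurenic acid-driven activation. Unstimulated cells mark maximal inhibition; normalization uses both control types, and multiply tested compounds carry mean or median values.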

[3] = Hepa 1c1c7 cells, 200 μM kynurenic acid, 20 hours, firefly luciferase reporter, read-out: AHR Antagonism Mouse IC50

IC50 (AHR [1]) [M]	IC50 (AHR [2]; [3]) [nM]	Structure (SMILES)	IC50 (AHR [2]; read-out: AHR Antagonism Mouse IC50, Hepa 1c1c7 cells, 200 μM kynurenic acid, 20 hours, firefly luciferase reporter) [nM]
6.71e-09	3.8	COc1ccc(-c2nc3c4cccc(Br)c4nc(N[C@@H](C(=O)NCCN4CCN(C)CC4)C(C)C)n3n2)cc1 [Example 924, N^2-[7-bromo-2-(4-methoxyphenyl)[1,2,4]triazolo[1,5-c]quinazolin-5-yl]-N-[2-(4-methylpiperazin-1-yl)ethyl]-D-valinamide]	
6.08e-09	4.14	COc1ccc(-c2nc3c4cccc(Br)c4nc(N[C@@H](C(=O)N4CCOCC4)C(C)C)n3n2)cc1 [Example 925, (2R)-2-{[7-bromo-2-(4-methoxyphenyl)[1,2,4]triazolo[1,5-c]quinazolin-5-yl]amino}-3-methyl-1-(morpholin-4-yl)butan-1-one]	
3.45e-08	6.16	CC(C)[C@@H](Nc1nc2c(Br)cccc2c2nc(-c3cnn(C)c3)nn12)C(=O)N1CCOCC1 [Example 926, (2R)-2-{[7-bromo-2-(1-methyl-1H-pyrazol-4-yl)[1,2,4]triazolo[1,5-c]quinazolin-5-yl]amino}-3-methyl-1-(morpholin-4-yl)butan-1-one]	
6.5e-08	34.4	CC(C)[C@@H](Nc1nc2c(Br)cccc2c2nc(-c3cnn(C)c3)nn12)C(=O)NCCN1CCN(C)CC1 [Example 927, N^2-[7-bromo-2-(1-methyl-1H-pyrazol-4-yl)[1,2,4]triazolo[1,5-c]quinazolin-5-yl]-N-[2-(4-methylpiperazin-1-yl)ethyl]-D-valinamide]	
1.81e-08	5.76	CC(C)[C@@H](Nc1nc2c(Br)cccc2c2nc(-c3cnn(C)c3)nn12)C(=O)N1CCN(C)CC1 [Example 928, (2R)-2-{[7-bromo-2-(1-methyl-1H-pyrazol-4-yl)[1,2,4]triazolo[1,5-c]quinazolin-5-yl]amino}-3-methyl-1-(4-methylpiperazin-1-yl)butan-1-one]	
3.93e-08	10.9	COCCNC(=O)[C@H](Nc1nc2c(Br)cccc2c2nc(-c3cnn(C)c3)nn12)C(C)C [Example 929, N^2-[7-bromo-2-(1-methyl-1H-pyrazol-4-yl)[1,2,4]triazolo[1,5-c]quinazolin-5-yl]-N-(2-methoxyethyl)-D-valinamide]	
5.21e-06	14100	Cn1cc(-c2nc3c4cccc(C#N)c4nc(N[C@@H]4CNCCNC4=O)n3n2)cn1 [Example 930, 2-(1-methyl-1H-pyrazol-4-yl)-5-{[(6R)-5-oxo-1,4-diazepan-6-yl]amino}[1,2,4]triazolo[1,5-c]quinazoline-7-carbonitrile]	
1.3e-07	297	CC(C)n1cc(-c2nc3c4cccc(C#N)c4nc(N[C@@H]4CNCCNC4=O)n3n2)cn1 [Example 931, 5-{[(6R)-5-oxo-1,4-diazepan-6-yl]amino}-2-[1-(propan-2-yl)-1H-pyrazol-4-yl][1,2,4]triazolo[1,5-c]quinazoline-7-carbonitrile]	
1.48e-07	173	N#Cc1cccc2c1nc(N[C@@H]1CNCCNC1=O)n1nc(-c3cnn(C4CC4)c3)nc21 [Example 932, 2-(1-cyclopropyl-1H-pyrazol-4-yl)-5-{[(6R)-5-oxo-1,4-diazepan-6-yl]amino}[1,2,4]triazolo[1,5-c]quinazoline-7-carbonitrile]	
7.39e-08	138	N#Cc1cccc2c1nc(N[C@@H]1CNCCNC1=O)n1nc(-c3cnn(C4CCC4)c3)nc21 [Example 933, 2-(1-cyclobutyl-1H-pyrazol-4-yl)-5-{[(6R)-5-oxo-1,4-diazepan-6-yl]amino}[1,2,4]triazolo[1,5-c]quinazoline-7-carbonitrile]	
4.72e-06	1120	N#Cc1cccc2c1nc(N[C@@H]1CNCCNC1=O)n1nc(-c3cn[nH]c3)nc21 [Example 935, 5-{[(6R)-5-oxo-1,4-diazepan-6-yl]amino}-2-(1H-pyrazol-4-yl)[1,2,4]triazolo[1,5-c]quinazoline-7-carbonitrile]	
1.27e-08	66.9	COc1ccc(-c2nc3c4cccc(S(C)(=O)=O)c4nc(N[C@@H]4CNCCNC4=O)n3n2)cc1 [Example 936, (6R)-6-{[7-(methanesulfonyl)-2-(4-methoxyphenyl)[1,2,4]triazolo[1,5-c]quinazolin-5-yl]amino}-1,4-diazepan-5-one]	
> 2e-05	> 20000	Cn1cc(-c2nc3c4cccc(S(C)(=O)=O)c4nc(N[C@@H]4CNCCNC4=O)n3n2)cn1 [Example 937, (6R)-6-{[7-(methanesulfonyl)-2-(1-methyl-1H-pyrazol-4-yl)[1,2,4]triazolo[1,5-c]quinazolin-5-yl]amino}-1,4-diazepan-5-one]	
4.23e-07	5550	CCSc1cccc2c1nc(N[C@@H]1CNCCNC1=O)n1nc(-c3cnn(C)c3)nc21 [Example 938]	
1.19e-08	22.5	CCSc1cccc2c1nc(N[C@@H]1CNCCNC1=O)n1nc(-c3ccc(OC)cc3)nc21 [Example 939, (6R)-6-{[7-(ethylsulfanyl)-2-(4-methoxyphenyl)[1,2,4]triazolo[1,5-c]quinazolin-5-yl]amino}-1,4-diazepan-5-one]	
1.79e-08	57	CCS(=O)(=O)c1cccc2c1nc(N[C@@H]1CNCCNC1=O)n1nc(-c3ccc(OC)cc3)nc21 [Example 940, (6R)-6-{[7-(ethanesulfonyl)-2-(4-methoxyphenyl)[1,2,4]triazolo[1,5-c]quinazolin-5-yl]amino}-1,4-diazepan-5-one]	
3.61e-08	67.5	COc1ccc(-c2nc3c4cccc(S(=O)(=O)C(C)C)c4nc(N[C@@H]4CNCCNC4=O)n3n2)cc1 [Example 941, (6R)-6-{[2-(4-methoxyphenyl)-7-(propan-2-sulfonyl)[1,2,4]triazolo[1,5-c]quinazolin-5-yl]amino}-1,4-diazepan-5-one]	
7.67e-07	4750	CCS(=O)(=O)c1cccc2c1nc(N[C@@H]1CNCCNC1=O)n1nc(-c3cnn(C)c3)nc21 [Example 942, (6R)-6-{[7-(ethanesulfonyl)-2-(1-methyl-1H-pyrazol-4-yl)[1,2,4]triazolo[1,5-c]quinazolin-5-yl]amino}-1,4-diazepan-5-one]	
9.47e-07	2790	CC(C)S(=O)(=O)c1cccc2c1nc(N[C@@H]1CNCCNC1=O)n1nc(-c3cnn(C)c3)nc21 [Example 943, (6R)-6-{[2-(1-methyl-1H-pyrazol-4-yl)-7-(propane-2-sulfonyl)[1,2,4]triazolo[1,5-c]quinazolin-5-yl]amino}-1,4-diazepan-5-one]	

Structure (SMILES)	IC50 (AHR [1]) [M]	IC50 (AHR [2]; [3]) [nM]	IC50 (AHR [2]; read-out: AHR Antagonism Mouse IC50, Hepa 1c1c7 cells, 200 μM kynurenic acid, 20 hours, firefly luciferase reporter) [nM]
N#Cc1cccc2c1nc(N[C@@H]1CNCCNC1=O)n1nc(-c3cnn(C(F)F)c3)nc21 [Example 934, 2-[1-(difluoromethyl)-1H-pyrazol-4-yl]-5-{[(6R)-5-oxo-1,4-diazepan-6-yl]amino}[1,2,4]triazolo[1,5-c]quinazoline-7-carbonitrile]	2.39e-07		116

From patent US20230113037A1 (Bayer Aktiengesellschaft, priority 2019, published 2023)
